Assay results taken from publication PMC3230241 (Nature biotechnology, 2011).

Molecular target: CHK2 (Homo sapiens, UniProt O96017)
Test: HotSpot radiometric kinase assay, CHK2
Type: biochemical
Conditions: compound 0.5 μM, 10 μM ATP; Fig. 4b

Sequence of CHK2 (O96017 whole entry): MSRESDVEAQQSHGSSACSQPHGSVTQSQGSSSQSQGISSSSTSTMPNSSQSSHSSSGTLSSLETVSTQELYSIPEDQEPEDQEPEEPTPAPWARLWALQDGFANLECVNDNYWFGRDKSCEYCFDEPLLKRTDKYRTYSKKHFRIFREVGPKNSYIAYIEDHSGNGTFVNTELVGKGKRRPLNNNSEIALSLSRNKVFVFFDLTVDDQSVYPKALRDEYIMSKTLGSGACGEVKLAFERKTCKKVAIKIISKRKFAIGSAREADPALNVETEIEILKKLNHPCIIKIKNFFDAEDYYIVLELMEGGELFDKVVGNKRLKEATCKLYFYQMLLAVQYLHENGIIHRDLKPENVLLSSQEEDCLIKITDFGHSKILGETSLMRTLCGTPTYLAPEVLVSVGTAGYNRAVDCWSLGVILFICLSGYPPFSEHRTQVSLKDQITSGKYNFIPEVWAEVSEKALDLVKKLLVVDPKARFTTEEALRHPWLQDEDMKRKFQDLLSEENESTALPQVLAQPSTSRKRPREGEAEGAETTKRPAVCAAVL

`COc1cc2ncnc(Nc3ccc(OCc4ccccc4)cc3)c2cc1OC` [EGFR/ErbB-2 Inhibitor, 4-(4-benzyloxyanilino)-6,7-dimethoxyquinazoline] was tested, and the “inhibition of CHK2” value was “potent inhibition”.
